Patent US20110318375A1, “Immunomodulatory Therapeutic Agents” (priority 2009, published 2011)

How the values were obtained:
mouse antibody IgE = settings: cited from earlier work
Ponto Toro Virus = assay type: in vivo, mice; settings: Ponto Toro infection, one dose; placebo group 25% survived
Cytokine 12 Panel [1] = test: Cytokine 12 panel after oral peptide preparation taken daily for two weeks; assay type: in vivo, human; settings: Pre: prior to the IV dose, 4 weeks after oral dosing
Excerpt: Peptide was suspended in an appropriate medium and a healthy volunteer took the preparation daily for two weeks, drawing blood for a cytokine 12 panel every five days. Due to the size of the molecules absorption from the mucosal route seemed unlikely, and the rapid digestion of peptides in the stomach would eliminate their efficacy in a true oral route. This same healthy volunteer had lab work drawn right before receiving an IV dose of synthetic Fibrinopeptide A. The IV dose was expected to have a more profound therapeutic effect, since treatment was simulating a normal intravascular biologic process. […] (Table 3). [table]

Cytokine 12 Panel [2] = test: Cytokine 12 panels after IV dose of 50 mg synthetic Fibrinopeptide A; assay type: in vivo, human; design: IL-10 / TNF-α / IL-2 / IL-12: unit not given here; settings: for IFN-γ / IL-4 / IL-5 / IL-6 / IL-8 / IL-13: nl: 0-5; for IL-12: nl: 0-6; for IL-2: nl: 0-12; for IL-10: nl: 0-18; for TNF-α: nl: 0-22; for IL-1β: nl: 0-36; for IL-2R: nl: 0-1033
Excerpt: Peptide was suspended in an appropriate medium and a healthy volunteer took the preparation daily for two weeks, drawing blood for a cytokine 12 panel every five days. Due to the size of the molecules absorption from the mucosal route seemed unlikely, and the rapid digestion of peptides in the stomach would eliminate their efficacy in a true oral route. This same healthy volunteer had lab work drawn right before receiving an IV dose of synthetic Fibrinopeptide A. The IV dose was expected to have a more profound therapeutic effect, since treatment was simulating a normal intravascular biologic process. […] (Table 3). [table] In addition to these elevations, a mild elevation of Interleukin-6 was also observed. Interleukin-6 is a pro-inflammatory cytokine and is a very strong stimulator of the innate immune system. […] The most significant of these tests is the blood drawn one month after the IV dose was given. In this test the marked elevation of at least IL-10 and IL-1β, which had been present in each of the other dosages given by any route, was observed. […] This location for primary activity also explains the stimulation of the adaptive immune system over the innate immune response, as the lymphatic system is more involved in the adaptive response, while the vascular system is more involved in the innate response. The response to orally administered Fibrinopeptide A also solidifies this location of activity as transmucosal absorption occurs almost exclusively through the lymphatic route, occurs rapidly for those molecules which are absorbed, and the oral submucosal region (especially the sublingual region) has an extensive lymphatic drainage with rapid access to the cells which would produce this type of response while at least partially being shielded from the enzymes that inactivate the peptides of this invention. Since chronic fibrin deposition in the extravascular space is always pathologic and pro-inflammatory, it is not surprising that patients have a mechanism triggered by this deposition to aid in the removal of these substances. […] By signaling the need for removal from the extravascular space, the same process should occur for similar chronic deposits in the subintimal space.

[3] = system: Experimental Allergic Encephalomyelitis (EAE); test: Acute Experimental Allergic Encephalomyelitis mouse model; assay type: in vivo, mice; settings: daily, subcutaneous; recovery after day 22, worsened on days 27 and 28; p<0.1
Excerpt: The carboxy terminus of activated Fibrinopeptide A was considered to be the active portion of the peptide, the carboxy terminus was PEGylate (addition of Poly Ethylene Glycol). This molecule was used to perform an EAE study. This study was designed to mimic the study done by Ruhenstroth-Bauer in 1981 utilizing two of these peptides, and showing some albeit mild benefit. The synthetic PEGylated peptide was expected to perform considerably better than the non-PEGylated peptide. Synthetic non-PEGylated peptide A was used as a positive control to compare the PEGylated verses non-PEGylated peptides. The medications were administered subcutaneously, due to this route having some efficacy in the cytokine profiles.
Test article 2 (PEGylated peptide) dosed daily, every 3 days and weekly never even approached statistically significant benefit.
During the first 22 days of the study EAE development in mice treated with test article 1 (daily non-PEGylated peptide A) was very similar to the vehicle-treated mice. […] Disease worsened in test article 1-treated mice on days 27 and 28 and became very similar to disease severity to the mice in the vehicle-treated group.

With “ADSGEGDFLAEGGGV (listed as Homo sapiens) [Fibrinopeptide A]” as the sequence, how does the “deglycosylation of IgE” value (mouse antibody IgE) read?
The value was “deglycosylates mouse antibody IgE”.

What about the “mice that lived (overall survivability)” value (Ponto Toro Virus) of the same sequence?
Its value is 60%.

And the IFN-γ (Cytokine 12 Panel [1]; nl: 0-5)?
The IFN-γ was under 5.

And the IL-4 (Cytokine 12 Panel [1]; nl: 0-5)?
The IL-4 was under 5.

What about the IL-5 (Cytokine 12 Panel [1]; nl: 0-5) of the same sequence?
Its IL-5 is under 5.

What about the IL-6 (Cytokine 12 Panel [1]; nl: 0-5) of the same sequence?
The IL-6 was 13.

And the IL-8 (Cytokine 12 Panel [1]; nl: 0-5)?
Its IL-8 is under 5.

What about the IL-12 (Cytokine 12 Panel [1]; nl: 0-6) of the same sequence?
The IL-12 was under 5.

And the IL-2 (Cytokine 12 Panel [1]; nl: 0-12)?
The IL-2 was under 5.

What about the IL-10 (Cytokine 12 Panel [1]; nl: 0-18) of the same sequence?
Its IL-10 is 96.

And the TNF-α (Cytokine 12 Panel [1]; nl: 0-22)?
Its TNF-α is under 5.

What about the IL-1β (Cytokine 12 Panel [1]; nl: 0-36) of the same sequence?
The IL-1β was 52.

And the IL-2R (Cytokine 12 Panel [1]; nl: 0-1033)?
The IL-2R was 550.

What about the IFN-γ (Cytokine 12 Panel [2]; 10 Hours after IV 50 mg) of the same sequence?
The IFN-γ was under 5.

What about the IL-4 (Cytokine 12 Panel [2]; 10 Hours after IV 50 mg) of the same sequence?
Its IL-4 is under 5.

And the IL-5 (Cytokine 12 Panel [2]; 10 Hours after IV 50 mg)?
Its IL-5 is under 5.

And the IL-6 (Cytokine 12 Panel [2]; 10 Hours after IV 50 mg)?
Its IL-6 is 11.

And the IL-8 (Cytokine 12 Panel [2]; 10 Hours after IV 50 mg)?
The IL-8 was under 5.

What about the IL-12 (Cytokine 12 Panel [2]; 10 Hours after IV 50 mg) of the same sequence?
Its IL-12 is under 5.

What about the IL-2 (Cytokine 12 Panel [2]; 10 Hours after IV 50 mg) of the same sequence?
The IL-2 was under 5.

And the IL-10 (Cytokine 12 Panel [2]; 10 Hours after IV 50 mg)?
Its IL-10 is 87.

And the TNF-α (Cytokine 12 Panel [2]; 10 Hours after IV 50 mg)?
Its TNF-α is under 5.

What about the IL-1β (Cytokine 12 Panel [2]; 10 Hours after IV 50 mg) of the same sequence?
Its IL-1β is 52.

And the IL-2R (Cytokine 12 Panel [2]; 10 Hours after IV 50 mg)?
Its IL-2R is 475.

And the IFN-γ (Cytokine 12 Panel [2]; 14 hours after IV 50 mg)?
Its IFN-γ is under 5.

What about the IL-4 (Cytokine 12 Panel [2]; 14 hours after IV 50 mg) of the same sequence?
Its IL-4 is under 5.

What about the IL-5 (Cytokine 12 Panel [2]; 14 hours after IV 50 mg) of the same sequence?
The IL-5 was under 5.

And the IL-6 (Cytokine 12 Panel [2]; 14 hours after IV 50 mg)?
Its IL-6 is 10.

And the IL-8 (Cytokine 12 Panel [2]; 14 hours after IV 50 mg)?
Its IL-8 is under 5.

What about the IL-12 (Cytokine 12 Panel [2]; 14 hours after IV 50 mg) of the same sequence?
The IL-12 was under 5.

What about the IL-2 (Cytokine 12 Panel [2]; 14 hours after IV 50 mg) of the same sequence?
The IL-2 was under 5.

What about the IL-10 (Cytokine 12 Panel [2]; 14 hours after IV 50 mg) of the same sequence?
The IL-10 was 87.

What about the TNF-α (Cytokine 12 Panel [2]; 14 hours after IV 50 mg) of the same sequence?
The TNF-α was under 5.

And the IL-1β (Cytokine 12 Panel [2]; 14 hours after IV 50 mg)?
Its IL-1β is 54.

And the IL-2R (Cytokine 12 Panel [2]; 14 hours after IV 50 mg)?
The IL-2R was 492.

And the IFN-γ (Cytokine 12 Panel [2]; 60 hours after IV 50 mg)?
The IFN-γ was under 5.

And the IL-4 (Cytokine 12 Panel [2]; 60 hours after IV 50 mg)?
The IL-4 was under 5.

And the IL-5 (Cytokine 12 Panel [2]; 60 hours after IV 50 mg)?
Its IL-5 is under 5.

What about the IL-6 (Cytokine 12 Panel [2]; 60 hours after IV 50 mg) of the same sequence?
The IL-6 was 7.

And the IL-8 (Cytokine 12 Panel [2]; 60 hours after IV 50 mg)?
The IL-8 was under 5.

And the IL-12 (Cytokine 12 Panel [2]; 60 hours after IV 50 mg)?
The IL-12 was under 5.

And the IL-2 (Cytokine 12 Panel [2]; 60 hours after IV 50 mg)?
Its IL-2 is under 5.

What about the IL-10 (Cytokine 12 Panel [2]; 60 hours after IV 50 mg) of the same sequence?
Its IL-10 is 74.

What about the TNF-α (Cytokine 12 Panel [2]; 60 hours after IV 50 mg) of the same sequence?
The TNF-α was under 5.

What about the IL-1β (Cytokine 12 Panel [2]; 60 hours after IV 50 mg) of the same sequence?
The IL-1β was 54.

What about the IL-2R (Cytokine 12 Panel [2]; 60 hours after IV 50 mg) of the same sequence?
The IL-2R was 425.

And the IFN-γ (Cytokine 12 Panel [2]; 30 days after IV 50 mg)?
Its IFN-γ is under 5.

And the IL-4 (Cytokine 12 Panel [2]; 30 days after IV 50 mg)?
Its IL-4 is under 5.

And the IL-5 (Cytokine 12 Panel [2]; 30 days after IV 50 mg)?
Its IL-5 is under 5.

And the IL-6 (Cytokine 12 Panel [2]; 30 days after IV 50 mg)?
Its IL-6 is under 5.

What about the IL-8 (Cytokine 12 Panel [2]; 30 days after IV 50 mg) of the same sequence?
Its IL-8 is under 5.

What about the IL-13 (Cytokine 12 Panel [2]; 30 days after IV 50 mg) of the same sequence?
The IL-13 was under 5.

And the IL-12 (Cytokine 12 Panel [2]; 30 days after IV 50 mg)?
Its IL-12 is under 5.

And the IL-2 (Cytokine 12 Panel [2]; 30 days after IV 50 mg)?
The IL-2 was under 5.

What about the IL-10 (Cytokine 12 Panel [2]; 30 days after IV 50 mg) of the same sequence?
The IL-10 was 22.

And the TNF-α (Cytokine 12 Panel [2]; 30 days after IV 50 mg)?
The TNF-α was under 5.

And the IL-1β (Cytokine 12 Panel [2]; 30 days after IV 50 mg)?
Its IL-1β is under 5.

And the IL-2R (Cytokine 12 Panel [2]; 30 days after IV 50 mg)?
The IL-2R was 546.

And the “response of the cytokine panel to IV administration” value (Cytokine 12 Panel [2]; IV dose 10 times stronger than the subcutaneous dosage given previously)?
Its value is “no appreciable response”.

What about the IFN-γ (Cytokine 12 Panel [2]; Pre and 1 month after IV Use) of the same sequence?
The IFN-γ was under 5.

What about the IL-4 (Cytokine 12 Panel [2]; Pre and 1 month after IV Use) of the same sequence?
Its IL-4 is under 5.

And the IL-5 (Cytokine 12 Panel [2]; Pre and 1 month after IV Use)?
The IL-5 was under 5.

And the IL-6 (Cytokine 12 Panel [2]; Pre and 1 month after IV Use)?
Its IL-6 is under 5.

What about the IL-8 (Cytokine 12 Panel [2]; Pre and 1 month after IV Use) of the same sequence?
Its IL-8 is under 5.

What about the IL-13 (Cytokine 12 Panel [2]; Pre and 1 month after IV Use) of the same sequence?
The IL-13 was under 5.

And the IL-12 (Cytokine 12 Panel [2]; Pre and 1 month after IV Use)?
Its IL-12 is under 5.

What about the IL-2 (Cytokine 12 Panel [2]; Pre and 1 month after IV Use) of the same sequence?
The IL-2 was under 5.

What about the IL-10 (Cytokine 12 Panel [2]; Pre and 1 month after IV Use) of the same sequence?
The IL-10 was 22.

What about the TNF-α (Cytokine 12 Panel [2]; Pre and 1 month after IV Use) of the same sequence?
Its TNF-α is under 5.

And the IL-1β (Cytokine 12 Panel [2]; Pre and 1 month after IV Use)?
Its IL-1β is under 5.

What about the IL-2R (Cytokine 12 Panel [2]; Pre and 1 month after IV Use) of the same sequence?
Its IL-2R is 546.

What about the “difference in disease severity versus vehicle-treated mice” value [3] of the same sequence?
Its value is “did not reach statistical significance”.
